Source: PubChem BioAssay (NCI)
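The compound was tested at five concentrations on cells cultured in 96-well plates, with a 48-hour exposure period. Definition used: TGI = concentration required for complete inhibition of growth.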

Tests used:
Experiment in all cases: NCI tumour cell line growth inhibition, 48 h
[1] = tested on: HT29 colon
[2] = tested on: KM20L2 colon
[3] = tested on: MALME-3M melanoma
[4] = tested on: DMS 114 small cell lung
[5] = tested on: UACC-257 melanoma
[6] = tested on: SF-268 CNS
[7] = tested on: COLO 205 colon
[8] = tested on: HCT-15 colon
[9] = tested on: EKVX NSCLC
[10] = tested on: A498 renal
[11] = tested on: NCI-H522 lung
[12] = tested on: SK-MEL-2 melanoma
[13] = tested on: NCI/ADR-RES ovarian
[14] = tested on: DMS 273 small cell lung
[15] = tested on: SNB-75 CNS
[16] = tested on: P388/ADR leukemia
[17] = tested on: LOX IMVI melanoma
[18] = tested on: SK-OV-3 ovarian
[19] = tested on: DLD-1 colon
[20] = tested on: HOP-18 NSCLC
[21] = tested on: NCI-H460 lung
[22] = tested on: SN12C renal
[23] = tested on: SF-539 CNS
[24] = tested on: SK-MEL-5 melanoma
[25] = tested on: UACC-62 melanoma
[26] = tested on: A549 NSCLC
[27] = tested on: HOP-92 NSCLC
[28] = tested on: M19-MEL melanoma
[29] = tested on: NCI-H23 lung
[30] = tested on: MCF7 breast
[31] = tested on: OVCAR-5 ovarian
[32] = tested on: OVCAR-8 ovarian
[33] = tested on: U251 CNS
[34] = tested on: HOP-62 NSCLC
[35] = tested on: SNB-78 CNS
[36] = tested on: CCRF-CEM leukemia
[37] = tested on: RXF 393 renal
[38] = tested on: HCC-2998 colon
[39] = tested on: OVCAR-3 ovarian
[40] = tested on: HL-60(TB) leukemia
[41] = tested on: IGROV1 ovarian
[42] = tested on: K-562 leukemia
[43] = tested on: HCT-116 colon
[44] = tested on: SF-295 CNS
[45] = tested on: NCI-H226 lung
[46] = tested on: OVCAR-4 ovarian
[47] = tested on: SW-620 colon
[48] = tested on: XF 498 CNS
[49] = tested on: SN12K1 renal
[50] = tested on: UO-31 renal
[51] = tested on: SNB-19 CNS
[52] = tested on: CAKI-1 renal
[53] = tested on: SK-MEL-28 melanoma
[54] = tested on: P388 leukemia
[55] = tested on: KM12 colon

## O=C1c2cccc3cc4ccccc4c(c23)C(=O)N1CCNCCN1C(=O)c2cccc3cc4ccccc4c(c23)C1=O
[1]
  TGI: 1.69 µM
[2]
  TGI: 2.22 µM
[3]
  TGI: 1.77 µM
[4]
  TGI: 0.78 µM
[5]
  TGI: 2.74 µM
[6]
  TGI: 2.55 µM
[7]
  TGI: 2.22 µM
[8]
  TGI: 1.53 µM
[9]
  TGI: 2.23 µM
[10]
  TGI: 2.26 µM
[11]
  TGI: 3.6 µM
[12]
  TGI: 3.15 µM
[13]
  TGI: 3.11 µM
[14]
  TGI: 1 µM
[15]
  TGI: 1.27 µM
[16]
  TGI: 0.611 µM
[17]
  TGI: 1.27 µM
[18]
  TGI: 5.8 µM
[19]
  TGI: 3.8 µM
[20]
  TGI: 0.879 µM
[21]
  TGI: 0.278 µM
[22]
  TGI: 1.59 µM
[23]
  TGI: 2.2 µM
[24]
  TGI: 1.84 µM
[25]
  TGI: 1.13 µM
[26]
  TGI: 0.982 µM
[27]
  TGI: 1.75 µM
[28]
  TGI: 1.78 µM
[29]
  TGI: 1.21 µM
[30]
  TGI: 5.17 µM
[31]
  TGI: 1.77 µM
[32]
  TGI: 2.31 µM
[33]
  TGI: 1.24 µM
[34]
  TGI: 4.92 µM
[35]
  TGI: 1.82 µM
[36]
  TGI: 1.04 µM
[37]
  TGI: 1.82 µM
[38]
  TGI: 2.23 µM
[39]
  TGI: 2.41 µM
[40]
  TGI: 0.619 µM
[41]
  TGI: 3.56 µM
[42]
  TGI: 1.47 µM
[43]
  TGI: 1.98 µM
[44]
  TGI: 0.906 µM
[45]
  TGI: 6.12 µM
[46]
  TGI: 2.14 µM
[47]
  TGI: 1.87 µM
[48]
  TGI: 0.82 µM
[49]
  TGI: 6.96 µM
[50]
  TGI: 1.57 µM
[51]
  TGI: 2.11 µM
[52]
  TGI: 1.04 µM
[53]
  TGI: 2.65 µM

## CC(C)(C)c1ccc2c(c1)OP1(Oc3cccc4cccnc34)(O2)Oc2ccc(C(C)(C)C)cc2O1
[1]
  TGI: 15.4 µM
[2]
  TGI: 15.4 µM
[54]
  TGI: 2.64 µM
[3]
  TGI: 51.3 µM
[4]
  TGI: 5.97 µM
[5]
  TGI: > 30.4 µM
[6]
  TGI: 26.7 µM
[7]
  TGI: 9.02 µM
[8]
  TGI: 15.3 µM
[9]
  TGI: 35.9 µM
[10]
  TGI: 34.9 µM
[11]
  TGI: 26.4 µM
[12]
  TGI: 43.8 µM
[13]
  TGI: 11.1 µM
[14]
  TGI: 13.8 µM
[15]
  TGI: > 54.2 µM
[16]
  TGI: 4.69 µM
[17]
  TGI: 17.7 µM
[18]
  TGI: > 92.1 µM
[19]
  TGI: 21.2 µM
[20]
  TGI: > 60.5 µM
[21]
  TGI: 12.7 µM
[22]
  TGI: 52.9 µM
[23]
  TGI: 30.2 µM
[24]
  TGI: 13.7 µM
[25]
  TGI: 12.2 µM
[26]
  TGI: > 54.7 µM
[27]
  TGI: > 100 µM
[28]
  TGI: 33.5 µM
[29]
  TGI: 10.2 µM
[30]
  TGI: 5.48 µM
[31]
  TGI: 32 µM
[32]
  TGI: > 100 µM
[33]
  TGI: 43.8 µM
[34]
  TGI: 62.1 µM
[35]
  TGI: > 100 µM
[36]
  TGI: > 25.2 µM
[37]
  TGI: 16.9 µM
[38]
  TGI: 24.1 µM
[39]
  TGI: 6.44 µM
[40]
  TGI: 6.82 µM
[41]
  TGI: 18.3 µM
[42]
  TGI: 37.5 µM
[43]
  TGI: 15.2 µM
[44]
  TGI: 42.6 µM
[45]
  TGI: 30.9 µM
[46]
  TGI: 6.14 µM
[47]
  TGI: > 31.8 µM
[48]
  TGI: 7.56 µM
[49]
  TGI: 14.2 µM
[50]
  TGI: 13.4 µM
[51]
  TGI: > 100 µM
[52]
  TGI: > 23.5 µM
[55]
  TGI: 21.3 µM
[53]
  TGI: > 84.9 µM
